Assays:
[1] = target: T1, purified bovine brain calcineurin (Bos taurus, UniProt P48452+P63099); test: Phosphorylated RII-peptide calcineurin phosphatase assay; format: biochemical; details: PKA-phosphorylated RII peptide as substrate; GsT fusion proteins 0-20 nM, 15 minutes; read-out: 50 percent inhibition concentrations (IC50) for calcineurin
T1 construct: 50 nM purified bovine brain calcineurin; from tissue; host or cells: bovine brain
Description: The RII peptide of the cAMP-regulatory subunit of PKA was produced as a fusion protein with GsT and labeled with ^32P-phosphate using protein kinase A followed by glutathione-Sepharose affinity purification (Milan et al., 1994). The radiolabeled RII GsT fusion protein was incubated with 1.5u of purified bovine brain calcineurin (ProMega) and 200 nM calmodulin (Sigma) in the presence of 0-20 nM GsT-Csp1 or GsT-Csp2 for 15 minutes. The reaction was stopped by the addition of an equal volume of 2xSDS sample buffer. After fractionation by SDS-polyacrylamide gel electrophoresis, free phosphate was measured by PhosphorImager analysis.

[2] = target: T1, purified bovine brain calcineurin; test: Para-nitrophenyl phosphate (pNPP) hydrolysis assay; format: biochemical; details: 60 mM pNPP, 50 nM calcineurin, 0-100 nM GsT fusion protein
Description: To determine whether the calcipressins; inhibit calcineurin in a manner similar to the immunosuppressants, we assayed pNPP hydrolysis by calcineurin-calcipressin complexes.
Reactions were performed for 30 min at 30 degrees, and stopped by the addition of 950 uL of 1M NaOH. The reaction product was measured by absorbance at 405 nm in a Beckman Du 64 spectophotometer.

[3] = tested on: calcineurin-dependent nuclear import of NF-AT4; test: Calcineurin-dependent NF-AT4 nuclear import assay in BHK cells; format: cell-based, baby hamster; details: for inhibition of NF-AT4 nuclear import stimulated by calcium ionophore: co-expressed with GFP-NF-AT4 in BHK cells; for inhibition of NF-AT nuclear import driven by constitutively active calcineurin (ΔCnA): co-expressed with NF-AT and constitutively active ΔCnA in BHK cells
Description: This assay monitors the subcellular location of GFP-tagged NF-AT4, a transcription factor that resides in the cytoplasm of unstimulated BHK cells. Following stimulation of BHK cells with ionomycin, a calcium ionophore, GFP-NF-AT4 translocates to the nucleus with a t1/2 of five minutes. This translocation event is accompanied by a dephosphorylation of NF-AT4 in a process dependent on calcineurin.
Baby hamster kidney cells were grown on sterile glass coverslips in DMEM media with 10% fetal calf serum and transfected using calcium phosphate methods (Heald et al., 1993). […] NF-AT4 expression was based on the vector pcDNA3-GFP-NF-AT4 (Shibasaki et al., 1996). Transfected cells were grown for 18 hours prior to drug treatments. Cells were fixed 30 minutes after ionomycin (0.5 uM) treatment or washout using 3% formaldehyde in PBS for 10 minutes at room temperature.

[4] = tested on: calcineurin-dependent NF-AT dephosphorylation; test: NF-AT4 dephosphorylation (western blot mobility) in BHK cells; format: cell-based, baby hamster; details: co-expressed with NF-AT4 in BHK cells; calcium ionophore treatment
Description: 3B. […] The transfected cells were either left untreated or treated with 1 μM calcium inonphore for 30 min, and the mobility of NF-AT4 was assessed by western blotting.

[5] = tested on: human calcineurin A subunit; test: Yeast two-hybrid interaction with calcineurin; format: binding
Source text: Potential targets of calcineurin, which is involved in neuronal calcium signaling, were identified using two hybrid screens of a murine hippocampal cDNA library as the prey and using calcineurin as a bait.
The calcineurin bait vector was constructed by cloning the human calcineurin A subunit (ΔCnAD130N; Zhu and McKeon, 1999) into pBRIDGE (Clontech) to create a fusion protein with the Gal4 DNA binding domain. The calcineurin regulatory B subunit (CnB) was cloned into the same pBridge vector under a separate, constitutive promoter. To test for interactions between calcineurin and proteins expressed in the hippocampus, the yeast strain CG1945, in which HIS3 expression is controlled by the Gal1 upstream activating sequence (UAS), was transfected with both the pBRIDGE vector as well as vector DNA from the murine hippocampal cDNA library. Cells were selected for growth on SD media lacking leucine, tryptophan, methionine, and histidine (-LWMH) containing 25 mM 3-aminotriazole, an inhibitor of alternative histidine biosynthetic pathways (REF). […]

[6] = Solubility assay upon expression in E. coli; format: physicochemical
Source text: Calcineurin consists of two subunits (Klee et al., 1998), CnA (60 kDa) and CnB (18 kDa), neither of which is soluble when expressed individually in E. coli. The structure of calcineurin was studied by taking advantage of the high level of calcineurin in the central nervous system to directly isolate it from bovine brain (Griffith et al., 1995). […] It is likely that the insolublility of Csp expression in E. coli is due to the absence of binding proteins such as calcineurin, thereby leaving hydrophobic stretches of amino acids uncomplemented (FIG. 1). As with the calcineurin subunits, it is possible that Csp 1 and Csp2 interact with calcineurin in a manner that will form a properly folded, soluble complex. […] The E. coli host containing the calcineurin expression vector will be transformed with these Csp vectors and selected for kanamycin resistance.
Alternatively the given protein or complex may be obtained in sufficient quantities and quality and crystallization protocols may be attempted. […] The skilled artisan will appreciate that other protein expression systems, such as baculovirus, may also be used.

[7] = tested on: BHK cells transfected with CnA and CnB; test: Calcium ionophore-induced apoptosis of BHK cells transfected with CnA/CnB; format: cell-based, baby hamster; details: ionomycin, low serum
Description: FIG. 7: Cells transfected with CnA/CnB (0.5 μg each) were serum deprived for four hours and stimulated with ionomycin (0.25 μM) for one hour in low serum media alone or containing CsA (800 nM), 6 MeAla-CsA (800 nM), and MeBm2t-CsA (800 nM), FK506 (100 nM).
Calcium signaling plays an important and yet mechanistically vague role in a wide range of cell death, including neuronal cell death in stroke and lymphocyte cell death during positive and negative selection. To test the possibility that calcineurin, a calcium-activated phosphatase, participates in cell death, we asked if cells overexpressing calcineurin would show an enhanced sensitivity to calcium ionophore-induced cell death (Shibasaki and McKeon, 1995). We co-transfected calcineurin A and B subunits into baby hamster kidney (BHK) cells and treated them with calcium ionophore approximately 16 hours later.

[8] = tested on: Csp1 transcripts; test: Csp1 transcript induction (Northern blot) in Jurkat T cells; format: cell-based; details: human Jurkat T cells, through eight hours
Description: 16A. Calcium signaling induces Csp 1 expression in synergy with PKC pathways. Csp 1 Northern blot of Jurkat T cells were treated with either calcium ionophore (I), PMA (P) or both (I+P) for the indicated durations. GAPDH transcripts were used as sample loading control.
16B. Calcium-dependent Csp 1 induction requires calcineurin.

Chain of human calcineurin A subunit (P63098 2-170, further chain): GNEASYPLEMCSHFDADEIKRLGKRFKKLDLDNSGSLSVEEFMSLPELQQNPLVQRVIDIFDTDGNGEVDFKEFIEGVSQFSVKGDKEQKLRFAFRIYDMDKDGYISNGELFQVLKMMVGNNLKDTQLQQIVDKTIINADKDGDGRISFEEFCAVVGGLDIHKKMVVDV

Compound: Csp2: Calcipressin 2, murine homolog of ZAKI-4, endogenous inhibitor of calcineurin; amino acid sequence SEQ ID No: 5
- IC50 [1]: 5 nM
- inhibition of pNPP hydrolysis by calcineurin [2]: blocked the hydrolysis of pNPP by calcineurin
- inhibition of NF-AT4 nuclear import stimulated by calcium ionophore [3]: profound suppression
- inhibition of NF-AT nuclear import driven by constitutively active calcineurin (ΔCnA) [3]: strong inhibitors of ΔCnA-induced NF-AT nuclear import
- NF-AT4 phosphorylation state [4]: hyperphosphorylated despite calcium ionophore treatment
- binding to calcineurin in two-hybrid yeast strains [5]: specifically bind to the catalytic subunit of calcineurin (CnA)
- typical yield of total protein in the soluble fraction ([6]; full length molecule expressed in E. coli at 15, 22, or 30° C.): 3%

Compound: Csp1: Calcipressin 1, murine homolog of DSCR1, endogenous inhibitor of calcineurin; amino acid sequence SEQ ID No: 4
- IC50 [1]: 2 nM

Compound: C/C=C/CC(C)(C)[C@@H](O)C1C(=O)N[C@@H](CC)C(=O)N(C)CC(=O)N(C)[C@@H](CC(C)C)C(=O)N[C@@H](C(C)C)C(=O)N(C)[C@@H](CC(C)C)C(=O)N[C@@H](C)C(=O)N[C@H](C)C(=O)N(C)[C@@H](CC(C)C)C(=O)N(C)[C@@H](CC(C)C)C(=O)N(C)[C@@H](C(C)C)C(=O)N1C (some centres unmarked) [MeBm2t-CsA]
- effect on calcineurin-induced apoptosis [7]: augment the apoptotic effect of calcineurin to a greater extent than CsA

Compound: C[C@H](CCC(=O)O)C[C@H](C)C[C@H](C)C(=O)/C=C(\O)[C@H](C)C[C@H](C)C/C=C/[C@@H](C)[C@@H](O)[C@@H](C)[C@@H](O)C[C@@H]1CC[C@@](C)([C@H]2CC[C@@](C)([C@@H](C)O)O2)O1 [ionomycin]
- effect on Csp1 transcript level [8]: not significantly elevated

Compound: Csp1 101-197: Csp1 lacking the N-terminus; C-terminal half of Csp1 (amino acids 101-197)
- inhibition of NF-AT4 nuclear import stimulated by calcium ionophore [3]: sufficient to inhibit the nuclear import of NF-AT4
- fraction of molecule soluble in E. coli ([6]; truncated molecule expressed in E. coli): approximately 70%

Compound: CCCCCCCCCCCCCC(=O)O[C@@H]1[C@@H](C)[C@@]2(O)[C@@H](C=C(CO)C[C@]3(O)C(=O)C(C)=C[C@@H]23)[C@@H]2C(C)(C)[C@]12OC(C)=O [PMA, phorbol 12-myristate 13-acetate]
- effect on Csp1 transcript level [8]: weak yet detectable stimulation of Csp1 transcription

Compound: Csp3: Third calcipressin family member, cDNA cloned from activated murine T cells; amino acid sequence SEQ ID No: 24
- inhibition of NF-AT nuclear import driven by constitutively active calcineurin (ΔCnA) [3]: inhibits the calcineurin mediated translocation of NFAT
